In US8440825B2, “Fumaric acid salt of varenicline” (Medichem S.A., priority 2008, dated 2013):
Structures can show the parent of a compound that is named as a salt.

Tests used:
[1] = Stability studies of varenicline crystalline salts (one year storage, HPLC and XRD); type: physicochemical; details: for Purity (HPLC) % 1 year later: after one year at room temperature; for Purity (HPLC) % 1 year later / Purity (HPLC) % initial / XRD result 1 year later: normal pressure, ambient atmosphere; for XRD result Initial: initial polymorphic form, before storage; for Purity (HPLC) % initial: before storage at room temperature; for XRD result 1 year later: polymorphic form after one year at room temperature; for Stability in terms of chemical purity and polymorphic form (in words): after one year of storage
Experimental: The varenicline crystalline salts were stored under standard conditions (i.e. room temperature, normal pressure, ambient atmosphere). The samples were analyzed after one year by HPLC and XRD.

[2] = Solubility in water of varenicline salts; type: physicochemical

Molecule: c1cnc2cc3c(cc2n1)[C@@H]1CNC[C@H]3C1 [Hydrochloride, varenicline hydrochloride, reference compound]
- Purity (HPLC) % 1 year later [1]: 99.68%
- XRD result Initial [1]: Form II
- Purity (HPLC) % initial [1]: 99.91%
- XRD result 1 year later [1]: Forms II + III

Molecule: varenicline oxalate [Example 12]
- Solubility in water [2]: >20 mg/mL
- Purity (HPLC) % 1 year later [1]: 99.72%
- XRD result Initial [1]: Form I
- Purity (HPLC) % initial [1]: 99.91%

Molecule: O=C(O)CCCCC(=O)O.c1cnc2cc3c(cc2n1)C1CNCC3C1.c1cnc2cc3c(cc2n1)C1CNCC3C1 [Example 1, varenicline hemi-adipate]
- Purity (HPLC) % 1 year later [1]: 99.77%
- Stability in terms of chemical purity and polymorphic form (in words) [1]: highly stable in terms of chemical purity and of polymorphic form
- XRD result Initial [1]: Form I
- Purity (HPLC) % initial [1]: 99.89%
- XRD result 1 year later [1]: Form I

Molecule: varenicline galactarate [Example 16]
- Solubility in water [2]: >20 mg/mL
- Solubility in water (in words) [2]: highly soluble
- Purity (HPLC) % 1 year later [1]: 99.71%
- Stability in terms of chemical purity and polymorphic form (in words) [1]: highly stable in terms of chemical purity and of polymorphic form
- XRD result Initial [1]: Form I
- Purity (HPLC) % initial [1]: 99.91%
- XRD result 1 year later [1]: Form I

Molecule: O=C(O)C(O)c1ccccc1.c1cnc2cc3c(cc2n1)C1CNCC3C1 (racemic) [Example 10, varenicline DL-mandelate]
- Purity (HPLC) % 1 year later [1]: 95.55%
- XRD result Initial [1]: Form I
- Purity (HPLC) % initial [1]: 99.93%

Molecule: O=S(=O)(O)CCS(=O)(=O)O.c1cnc2cc3c(cc2n1)C1CNCC3C1.c1cnc2cc3c(cc2n1)C1CNCC3C1 [Example 18, Varenicline Hemi-1,2-Ethane Disulfonate]
- Purity (HPLC) % 1 year later [1]: 99.36%
- XRD result Initial [1]: Form I
- Purity (HPLC) % initial [1]: 99.97%

Molecule: varenicline fumarate [Example 2]
- Solubility in water [2]: >20 mg/mL
- Solubility in water (in words) [2]: highly soluble
- Purity (HPLC) % 1 year later [1]: 99.76%
- Stability in terms of chemical purity and polymorphic form (in words) [1]: highly stable in terms of chemical purity and of polymorphic form
- XRD result Initial [1]: Form I
- Purity (HPLC) % initial [1]: 99.84%
- XRD result 1 year later [1]: Form I

Molecule: varenicline phosphate [Phosphate Form II]
- Purity (HPLC) % 1 year later [1]: 99.93%
- XRD result Initial [1]: Form II
- Purity (HPLC) % initial [1]: 99.89%
- XRD result 1 year later [1]: Form II

Molecule: c1cnc2cc3c(cc2n1)[C@@H]1CNC[C@H]3C1 [Example 5, varenicline hydrochloride]
- solubility [2]: > 20 mg/mL

Molecule: varenicline phosphate [Example 13]
- Solubility in water [2]: >20 mg/mL
- Solubility in water (in words) [2]: highly soluble
- Purity (HPLC) % 1 year later ([1]; listed as Phosphate Form I): 99.89%
- Stability in terms of chemical purity and polymorphic form (in words) [1]: highly stable in terms of chemical purity and in terms of polymorphic form
- XRD result Initial ([1]; listed as Phosphate Form I): Form I
- Purity (HPLC) % initial ([1]; listed as Phosphate Form I): 100%
- XRD result 1 year later ([1]; listed as Phosphate Form I): Form I

Molecule: CC(O)C(=O)O.c1cnc2cc3c(cc2n1)C1CNCC3C1 (racemic) [Example 17, varenicline DL-lactate]
- Purity (HPLC) % 1 year later [1]: 98.48%
- XRD result Initial [1]: Form I
- Purity (HPLC) % initial [1]: 98.98%

Molecule: O=C(O)CC(=O)O.c1cnc2cc3c(cc2n1)C1CNCC3C1 [Example 9, varenicline malonate]
- Purity (HPLC) % 1 year later [1]: 99.45%
- XRD result Initial [1]: Form I
- Purity (HPLC) % initial [1]: 99.91%

Molecule: O=C(O)CCCC(=O)O.c1cnc2cc3c(cc2n1)C1CNCC3C1 [Example 3, varenicline glutarate]
- Purity (HPLC) % 1 year later [1]: 97.90%
- XRD result Initial [1]: Form I
- Purity (HPLC) % initial [1]: 98.77%

Molecule: varenicline S-2-pyrrolidinon-5-carboxylate [Example 14]
- Purity (HPLC) % 1 year later [1]: 99.83%
- Stability in terms of chemical purity and polymorphic form (in words) [1]: highly stable in terms of chemical purity and in terms of polymorphic form
- XRD result Initial [1]: Form I
- Purity (HPLC) % initial [1]: 99.99%
- XRD result 1 year later [1]: Form I

Molecule: varenicline succinate [Example 15]
- Solubility in water [2]: >20 mg/mL

Molecule: varenicline maleate [Example 8]
- Solubility in water [2]: >20 mg/mL
- Solubility in water (in words) [2]: highly soluble
- Purity (HPLC) % 1 year later [1]: 99.90%
- Stability in terms of chemical purity and polymorphic form (in words) [1]: highly stable in terms of chemical purity and of polymorphic form
- XRD result Initial [1]: Form I
- Purity (HPLC) % initial [1]: 100%
- XRD result 1 year later [1]: Form I

Molecule: varenicline L-malate [Malate Form II]
- Purity (HPLC) % 1 year later [1]: 99.66%
- Stability in terms of chemical purity and polymorphic form (in words) ([1]; listed as varenicline L-malate Form II): highly stable in terms of chemical purity and of polymorphic form
- XRD result Initial [1]: Form II
- Purity (HPLC) % initial [1]: 99.94%
- XRD result 1 year later [1]: Form II

Molecule: O=C(O)CCC(=O)C(=O)O.c1cnc2cc3c(cc2n1)C1CNCC3C1 [Example 6, varenicline α-ketoglutarate]
- Purity (HPLC) % 1 year later [1]: 98.45%
- XRD result Initial [1]: Form I
- Purity (HPLC) % initial [1]: 99.71%

Molecule: varenicline di-mesylate [Example 11]
- Solubility in water [2]: >20 mg/mL
- Purity (HPLC) % 1 year later [1]: 99.28%
- XRD result Initial [1]: Form I
- Purity (HPLC) % initial [1]: 99.99%

Molecule: varenicline L-malate [Example 7]
- Solubility in water [2]: >20 mg/mL
- Solubility in water (in words) [2]: highly soluble
- Purity (HPLC) % 1 year later ([1]; listed as Malate Form I): 99.47%
- Stability in terms of chemical purity and polymorphic form (in words) ([1]; listed as varenicline L-malate Form I): stable in terms of chemical purity
- XRD result Initial ([1]; listed as Malate Form I): Form I
- Purity (HPLC) % initial ([1]; listed as Malate Form I): 99.95%

Molecule: varenicline glycolate [Example 4]
- Purity (HPLC) % 1 year later [1]: 99.57%
- XRD result Initial [1]: Form I
- Purity (HPLC) % initial [1]: 99.95%
